Laboratory results from US20250282820A1, “PEPTIDE COMPLEX HAVING TRKB BINDING ACTIVITY” (PEPTIDREAM INC, priority 2022, published 2025).
*1 amine or outer side, *2 acyl side, *3 side chain or, on linkers, in order; H or OH if unused. Where a SMILES comes first, the peptide text is derived from it. Bridges are numbered along the chain shown (N, C = ends). Roman numbers before positions name the chains, in order. [ ]: non-standard residue; d: D form. PEG8 = NCCOCCOCCOCCOCCOCCOCCOCCOCCC(=O)O; 3Pal = N[C@@H](Cc1cccnc1)C(=O)O; X2 = O=C(CCOCCC(=O)[*:2])[*:1]

Legend:
Assay type in all cases: cell-based
[1] = biological target: T1, TrkB (CellSensor TrkB-NFAT-bla CHO-K1 Cell) (Homo sapiens, UniProt Q16620); experiment: pERK1/2 AlphaLISA assay (phosphorylation of ERK) for TrkB agonist activity; conditions: class = peptide concentration giving 50% or more activity; BDNF maximum signal = 100%, no stimulation = 0%; 15 minutes of stimulation
T1 construct: host or cells: CHO-K1 (CellSensor TrkB-NFAT-bla CHO-K1)
Protocol: To evaluate the TrkB activation potency of the TrkB agonist peptide of the present invention, the phosphorylation of ERK was examined. CellSensor (registered trademark) TrkB-NFAT-bla CHO-K1 Cell (Invitrogen) was cultured in DMEM, high glucose, GlutaMAX (registered trademark) Supplement, and pyruvate (Thermo), comprising 10% FBS (Thermo) and 1× Non-essential amino acids (Thermo), 25 mM HEPES (Thermo), 50 ug/mL Gentamicin, 5 ug/mL Blasticidin (Thermo), and 200 ug/mL Zeocin (Thermo). After the cells were detached using Accutase (Innovative Cell Technologies), they were seeded into a 96-well plate for adherent cultures at 12,500 cells per well and cultured overnight. The next day, for starvation, the culture solution above was replaced with a nutrient starvation medium comprising 0.1% BSA (Sigma), wherein FBS, Blasticidin, and Zeocin were removed from the culture medium, and culturing was performed for 4 hours. Thereafter, Recombinant Human BDNF Protein (R&D Systems) or a peptide was added, and after 15 minutes of stimulation, cells were lysed in the Lysis Buffer provided with the AlphaLISA SureFire Ultra p-Erk1/2 (Thr202/Tyr204) assay kit (PerkinElmer). The assay was performed according to the kit protocol. The signals were detected using a SpectraMax Paradigm Multi-Mode Microplate Reader (Molecular Devices). The obtained signals were analyzed with GraphPad Prism, and the activity (%) was calculated with the maximum value of the signals induced by BDNF as 100% and a signal with no stimulation as 0%. The peptide with 50% or more activity when 1 nM of the peptide was added was evaluated as A, and the peptide with 50% or more activity when 10 nM of the peptide was added was evaluated as B.
The BDNF was evaluated at 8 points (0.0006 nM to 10 nM) from 10 nM using 4-fold dilutions.
(§1) For dimer structures Nos. 1 to 3, the peptide was evaluated at 1 nM, 10 nM, and 100 nM, and, for other dimer structure numbers, the peptide was evaluated at 0.1 nM, 1 nM, and 10 nM. When creating the concentration dependence curve, the BDNF and the peptides were evaluated at 8 points (0.006 nM to 100 nM) from 100 nM using 4-fold dilutions.

[2] = biological target: T1, TrkB (CellSensor TrkB-NFAT-bla CHO-K1 Cell); experiment: NFAT transcriptional reporter assay for TrkB agonist activity; conditions: class = peptide concentration giving 50% or more activity; BDNF maximum signal = 100%, no stimulation = 0%; 5 hours culture
Protocol: To evaluate the TrkB activation potency of the TrkB agonist peptide of the present invention, transcriptional activity was examined using transcriptional reporters. The CellSensor (registered trademark) TrkB-NFAT-bla CHO-K1 Cell (Invitrogen) used in the AlphaLISA assay was cultured in the medium above. After the cells were detached using Accutase (Innovative Cell Technologies), the cells were suspended in an assay medium, wherein Blasticidin and Zeocin were removed, then seeded into a 96-well plate for adherent cultures at 12,500 cells per well and cultured overnight. Then, BDNF or a peptide was added thereto, and the cells were further cultured in a CO2 incubator for 5 hours. After the 96-well plate was removed from the incubator and brought to room temperature, a detection reagent (LiveBLAzer (registered trademark)-FRET B/G (CCF4-AM) Substrate Mixture) was added while protected from the light, and the 96-well plate was incubated while protected from the light in a moisture box with a lid for 2 hours. For signal detection, a EnVision 2104 Multilabel Plate Reader (PerkinElmer) was used, and the ratio of fluorescence emission value (460 nm/535 nm) was calculated. The obtained numerical values were analyzed with GraphPad Prism, and the activity (%) was calculated with the maximum value of the signals induced by BDNF as 100% and a signal with no stimulation as 0%. The peptide with 50% or more activity when 1 nM of the peptide was added was evaluated as A, the peptide with 50% or more activity when 10 nM of the peptide was added was evaluated as B, and the peptide with 50% or more activity when 100 nM of the peptide was added was evaluated as C. Those that were not evaluated were listed as not tested.
The BDNF was evaluated at 7 points (0.0024 nM to 10 nM) from 10 nM using 4-fold dilutions.
as §1, with “at […]” for “at 8”, “[…]” for “from 100”

[3] = biological target: TrkB (Homo sapiens, UniProt Q16620); experiment: PathHunter eXpress TrkB Functional Assay (phosphorylation of TrkB); conditions: maximum signal induced by BDNF = 100%; stimulation for 3 hours
Summary of the method: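 PathHunter TrkB cells, cultured 48 h, were stimulated 3 h with peptide or BDNF, then detection reagent added for 60 min at room temperature; luminescence read. Activity (%) scaled from unstimulated (0%) to maximal BDNF signal (100%); peptides tested over 0.006104-100 nM, 0.032-100 nM or 0.01-10 nM ranges.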

T1 sequence (Q16620 32-822): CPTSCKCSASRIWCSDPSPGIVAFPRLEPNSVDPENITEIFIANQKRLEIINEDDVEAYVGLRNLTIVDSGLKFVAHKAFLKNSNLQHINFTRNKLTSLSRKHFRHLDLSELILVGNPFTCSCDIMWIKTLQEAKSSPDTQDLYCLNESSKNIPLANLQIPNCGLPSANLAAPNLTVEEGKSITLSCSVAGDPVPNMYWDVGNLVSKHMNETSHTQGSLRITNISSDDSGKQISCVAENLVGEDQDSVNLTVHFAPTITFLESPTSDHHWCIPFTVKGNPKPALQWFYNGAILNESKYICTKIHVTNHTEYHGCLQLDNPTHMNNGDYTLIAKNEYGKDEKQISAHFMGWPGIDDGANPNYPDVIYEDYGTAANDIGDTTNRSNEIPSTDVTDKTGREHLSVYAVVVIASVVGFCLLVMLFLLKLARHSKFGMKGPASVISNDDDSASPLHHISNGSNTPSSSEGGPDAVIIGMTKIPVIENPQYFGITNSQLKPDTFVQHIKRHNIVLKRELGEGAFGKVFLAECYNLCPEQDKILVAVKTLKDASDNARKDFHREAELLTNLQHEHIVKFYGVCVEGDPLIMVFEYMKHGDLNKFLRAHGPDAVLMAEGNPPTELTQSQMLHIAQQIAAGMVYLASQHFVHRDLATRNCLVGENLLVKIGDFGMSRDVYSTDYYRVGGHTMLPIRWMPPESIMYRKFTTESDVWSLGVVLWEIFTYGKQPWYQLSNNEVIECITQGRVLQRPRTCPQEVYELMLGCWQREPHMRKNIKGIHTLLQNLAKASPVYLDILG
Sequence of TrkB (Q16620 32-822): as above

SMILES | pERK (aLISA) Assay Results [1] | NFAT Assay Results [2] | Emax [3] [%]
CC(C)[C@@H]1NC(=O)[C@H](Cc2cccnc2)NC(=O)[C@H](CCC(=O)O)NC(=O)[C@H](CO)NC(=O)[C@H](Cc2ccc(O)cc2)NC(=O)[C@H]([C@@H](C)O)NC(=O)[C@@H]2CCCN2C(=O)[C@H](Cc2c[nH]c3ccccc23)NC(=O)[C@H](Cc2cccnc2)NC(=O)[C@H](Cc2ccc(O)cc2)NC(=O)[C@@H]2CCCN2C(=O)[C@H](CCC(=O)O)NC(=O)[C@H](Cc2ccccc2)NC(=O)CSC[C@@H](C(=O)NCC(=O)NCCOCCOCCOCCOCCOCCOCCOCCOCCC(=O)NCCCC[C@H](NC(=O)CCOCCOCCOCCOCCOCCOCCOCCOCCNC(=O)CNC(=O)[C@@H]2CSCC(=O)N[C@@H](Cc3ccccc3)C(=O)N[C@@H](CCC(=O)O)C(=O)N3CCC[C@H]3C(=O)N[C@@H](Cc3ccc(O)cc3)C(=O)N[C@@H](Cc3cccnc3)C(=O)N[C@@H](Cc3c[nH]c4ccccc34)C(=O)N3CCC[C@H]3C(=O)N[C@@H]([C@@H](C)O)C(=O)N[C@@H](Cc3ccc(O)cc3)C(=O)N[C@@H](CO)C(=O)N[C@@H](CCC(=O)O)C(=O)N[C@@H](Cc3cccnc3)C(=O)N[C@@H](C(C)C)C(=O)N[C@@H](CO)C(=O)N2)C(N)=O)NC(=O)[C@H](CO)NC1=O [compound 18] (I: {CH2CO}-FEPY[3Pal]WPTYSE[3Pal]VSCG[PEG8]K-NH2 / II: {CH2CO}-FEPY[3Pal]WPTYSE[3Pal]VSCG[PEG8]; amide I:18-II:C (inferred); thioether I:N-I:15, II:N-II:15 (inferred)) | A (The peptide with 50% or more activity when 1 nM of the peptide was added was evaluated as A) | A (The peptide with 50% or more activity when 1 nM of the peptide was added was evaluated as A) | 93
CC(C)[C@@H]1NC(=O)[C@H](Cc2cccnc2)NC(=O)[C@H](CCC(=O)O)NC(=O)[C@H](CO)NC(=O)[C@H](Cc2ccc(O)cc2)NC(=O)[C@H]([C@@H](C)O)NC(=O)[C@@H]2CCCN2C(=O)[C@H](Cc2c[nH]c3ccccc23)NC(=O)[C@H](Cc2cccnc2)NC(=O)[C@H](Cc2ccc(O)cc2)NC(=O)[C@@H]2CCCN2C(=O)[C@H](CO)NC(=O)[C@H](Cc2ccccc2)NC(=O)CSC[C@@H](C(=O)NCC(=O)NCCOCCOCCOCCOCCOCCOCCOCCOCCC(=O)N[C@@H](CCCCNC(=O)CCOCCC(=O)NCCCC[C@H](NC(=O)CCOCCOCCOCCOCCOCCOCCOCCOCCNC(=O)CNC(=O)[C@@H]2CSCC(=O)N[C@@H](Cc3ccccc3)C(=O)N[C@@H](CO)C(=O)N3CCC[C@H]3C(=O)N[C@@H](Cc3ccc(O)cc3)C(=O)N[C@@H](Cc3cccnc3)C(=O)N[C@@H](Cc3c[nH]c4ccccc34)C(=O)N3CCC[C@H]3C(=O)N[C@@H]([C@@H](C)O)C(=O)N[C@@H](Cc3ccc(O)cc3)C(=O)N[C@@H](CO)C(=O)N[C@@H](CCC(=O)O)C(=O)N[C@@H](Cc3cccnc3)C(=O)N[C@@H](C(C)C)C(=O)N[C@@H](CCC(=O)O)C(=O)N2)C(N)=O)C(N)=O)NC(=O)[C@H](CCC(=O)O)NC1=O [compound 33] (I: {CH2CO}-FSPY[3Pal]WPTYSE[3Pal]VECG[PEG8]K-NH2 / II: {CH2CO}-FSPY[3Pal]WPTYSE[3Pal]VECG[PEG8]K-NH2; linker I:18-II:18 via X2; thioether I:N-I:15, II:N-II:15) | A (The peptide with 50% or more activity when 1 nM of the peptide was added was evaluated as A) | A (The peptide with 50% or more activity when 1 nM of the peptide was added was evaluated as A) | 96
